Read-outs that look alike come from different tables or passages of the source.
Legend:
mtOXPHOS transcripts = assay type: cell-based, mouse; conditions: for mitoOX (composite Z-score): normalized score vs mock-treated (DMSO) wells
reactive oxygen species = assay type: cell-based, mouse; conditions: for ROS (composite Z-score): normalized score vs mock-treated (DMSO) wells
[1] = tested on: cellular dehydrogenase activity; conditions: for MTT (composite Z-score): normalized score vs mock-treated (DMSO) wells
C2C12 myotubes = conditions: for Viability (composite Z-score): normalized score vs mock-treated (DMSO) wells
[2] = tested on: mitochondrial membrane potential; assay type: cell-based, mouse; conditions: for ΔΨm (composite Z-score): normalized score vs mock-treated (DMSO) wells
nuOXPHOS transcripts = assay type: cell-based, mouse; conditions: for nucOX (composite Z-score): normalized score vs mock-treated (DMSO) wells
cytochrome c = assay type: cell-based, mouse; conditions: for cyt c (composite Z-score): normalized score vs mock-treated (DMSO) wells
OXPHOS gene expression = assay type: cell-based, mouse; conditions: for GE-HTS (composite Z-score): normalized score vs mock-treated (DMSO) wells
[3] = composite Z-score vs DMSO, Conc 20 μM
[4] = composite Z-score vs DMSO wells, Conc 20 μM
[5] = composite Z-score vs DMSO, Conc 20.38 μM
[6] = composite Z-score vs mock-treated (DMSO) wells, Conc 20 μM
[7] = 20 μM, composite Z-score vs DMSO
[8] = 27.18 μM, composite Z-score vs DMSO

C[C@@]12CCc3occc3[C@H]1CC[C@@]13C[C@@H](CC[C@H]12)[C@@](O)(CO)C3 [cafestol]
mitoOX (mtOXPHOS transcripts; [3]): −1.543 | ROS (reactive oxygen species; [3]): 0.832 | MTT [1, 3]: 1.124 | Viability (C2C12 myotubes; [3]): 0.025 | ΔΨm [2, 3]: 1.283 | nucOX (nuOXPHOS transcripts; [3]): −0.385 | cyt c (cytochrome c; [3]): 1.374 | GE-HTS (OXPHOS gene expression; [3]): −0.833

O=C(O)CN(CC(=O)O)Cc1cc2c(cc1O)Oc1cc(O)c(CN(CC(=O)O)CC(=O)O)cc1C21OC(=O)c2ccccc21 [calcein]
mitoOX (mtOXPHOS transcripts; [4]): −0.829 | ROS (reactive oxygen species; [4]): 11.668 | MTT [1, 4]: −0.243 | Viability (C2C12 myotubes; [4]): 5.567 | ΔΨm [2, 4]: −3.437 | nucOX (nuOXPHOS transcripts; [4]): −0.468 | cyt c (cytochrome c; [4]): 0.465 | GE-HTS (OXPHOS gene expression; [4]): −0.625

CCOc1nc2cccc(C(=O)OC(C)OC(=O)OC3CCCCC3)c2n1Cc1ccc(-c2ccccc2-c2nn[nH]n2)cc1 (centres unmarked) [candesartan cilextil]
mitoOX (mtOXPHOS transcripts; [3]): −0.658 | ROS (reactive oxygen species; [3]): 1.855 | MTT [1, 3]: −1.116 | Viability (C2C12 myotubes; [3]): 1.842 | ΔΨm [2, 3]: −0.743 | nucOX (nuOXPHOS transcripts; [3]): −0.259 | cyt c (cytochrome c; [3]): 1.328 | GE-HTS (OXPHOS gene expression; [3]): −0.432

C[C@]12CCC(=O)C=C1C=C[C@@H]1[C@@H]2CC[C@@]2(C)[C@H]1CC[C@@]2(O)CCC(=O)O [canrenoic acid]
mitoOX (composite Z-score) (mtOXPHOS transcripts; Conc 20 μM): −0.047 | ROS (composite Z-score) (reactive oxygen species; Conc 20 μM): 0.803 | MTT (composite Z-score) ([1]; Conc 20 μM): −0.973 | Viability (composite Z-score) (C2C12 myotubes; Conc 20 μM): −0.004 | ΔΨm (composite Z-score) ([2]; Conc 20 μM): −0.749 | nucOX (composite Z-score) (nuOXPHOS transcripts; Conc 20 μM): 0.154 | cyt c (composite Z-score) (cytochrome c; Conc 20 μM): 0.732 | GE-HTS (composite Z-score) (OXPHOS gene expression; Conc 20 μM): 0.072

C[C@@]12C(=O)OC(=O)[C@]1(C)[C@H]1CC[C@@H]2O1 [cantharidin]
mitoOX (mtOXPHOS transcripts; [3]): 2.498 | mitoOX (mtOXPHOS transcripts; [5]): 0.310 | ROS (reactive oxygen species; [3]): −2.764 | ROS (reactive oxygen species; [5]): −2.786 | MTT [1, 3]: −5.729 | MTT [1, 5]: −5.122 | Viability (C2C12 myotubes; [3]): −4.063 | Viability (C2C12 myotubes; [5]): −4.714 | ΔΨm [2, 3]: −2.513 | ΔΨm [2, 5]: −2.722 | nucOX (nuOXPHOS transcripts; [3]): 0.477 | nucOX (nuOXPHOS transcripts; [5]): 0.144 | cyt c (cytochrome c; [3]): −5.284 | cyt c (cytochrome c; [5]): −5.104 | GE-HTS (OXPHOS gene expression; [3]): 1.196 | GE-HTS (OXPHOS gene expression; [5]): 0.217

COC(=O)C[C@H]1C(C)(C)C(=O)[C@@H]2CC3=C(CC[C@]4(C)C3=CC(=O)O[C@H]4c3ccoc3)[C@@]1(C)C2=O [carapin-8 (9)-ene]
mitoOX (composite Z-score) (mtOXPHOS transcripts; Conc 20 μM): 0.284 | ROS (composite Z-score) (reactive oxygen species; Conc 20 μM): 0.766 | MTT (composite Z-score) ([1]; Conc 20 μM): −1.272 | Viability (composite Z-score) (C2C12 myotubes; Conc 20 μM): 1.357 | ΔΨm (composite Z-score) ([2]; Conc 20 μM): −0.223 | nucOX (composite Z-score) (nuOXPHOS transcripts; Conc 20 μM): −0.003 | cyt c (composite Z-score) (cytochrome c; Conc 20 μM): 0.412 | GE-HTS (composite Z-score) (OXPHOS gene expression; Conc 20 μM): 0.121

COC(=O)C[C@H]1C(C)(C)C(=O)[C@@H]2CC3C4=CC(=O)O[C@@H](c5ccoc5)[C@]4(C)CC[C@@H]3[C@@]1(C)C2=O (some centres unmarked) [carapin]
mitoOX (mtOXPHOS transcripts; [6]): 0.058 | ROS (reactive oxygen species; [6]): 1.897 | MTT [1, 6]: −0.925 | Viability (C2C12 myotubes; [6]): 1.424 | ΔΨm [2, 6]: −0.524 | nucOX (nuOXPHOS transcripts; [6]): 0.665 | cyt c (cytochrome c; [6]): −0.096 | GE-HTS (OXPHOS gene expression; [6]): 0.512

C[N+](C)(C)CCOC(N)=O [carbachol]
mitoOX (mtOXPHOS transcripts; [7]): 0.391 | mitoOX (mtOXPHOS transcripts; [8]): 0.191 | ROS (reactive oxygen species; [7]): 1.304 | ROS (reactive oxygen species; [8]): 1.223 | MTT [1, 7]: −1.002 | MTT [1, 8]: 0.905 | Viability (C2C12 myotubes; [7]): −0.502 | Viability (C2C12 myotubes; [8]): −0.239 | ΔΨm [2, 7]: −0.965 | ΔΨm [2, 8]: −0.296 | nucOX (nuOXPHOS transcripts; [7]): 0.273 | nucOX (nuOXPHOS transcripts; [8]): −0.176 | cyt c (cytochrome c; [7]): −0.154 | cyt c (cytochrome c; [8]): −0.202 | GE-HTS (OXPHOS gene expression; [7]): 0.355 | GE-HTS (OXPHOS gene expression; [8]): −0.060

COC(=O)N/N=C/c1c[n+]([O-])c2ccccc2[n+]1[O-] [carbadox]
mitoOX (mtOXPHOS transcripts; [3]): −1.076 | ROS (reactive oxygen species; [3]): −0.079 | MTT [1, 3]: −1.334 | Viability (C2C12 myotubes; [3]): −0.905 | ΔΨm [2, 3]: −1.394 | nucOX (nuOXPHOS transcripts; [3]): −0.599 | cyt c (cytochrome c; [3]): −0.250 | GE-HTS (OXPHOS gene expression; [3]): −0.802

CC1(C)S[C@@H]2[C@H](NC(=O)C(C(=O)O)c3ccccc3)C(=O)N2[C@H]1C(=O)O (some centres unmarked) [carbenicillin]
mitoOX (mtOXPHOS transcripts; [7]): −0.823 | ROS (reactive oxygen species; [7]): 2.042 | MTT [1, 7]: −0.565 | Viability (C2C12 myotubes; [7]): −0.524 | ΔΨm [2, 7]: 0.298 | nucOX (nuOXPHOS transcripts; [7]): −0.835 | cyt c (cytochrome c; [7]): −0.074 | GE-HTS (OXPHOS gene expression; [7]): −0.869

Cc1c(C(=O)O)c(O)cc2c1C(=O)c1c(O)c([C@@H]3O[C@H](CO)[C@@H](O)[C@H](O)[C@H]3O)c(O)c(O)c1C2=O [carminic acid]
mitoOX (mtOXPHOS transcripts; [3]): −0.671 | ROS (reactive oxygen species; [3]): 0.083 | MTT [1, 3]: −1.295 | Viability (C2C12 myotubes; [3]): −0.905 | ΔΨm [2, 3]: −0.378 | nucOX (nuOXPHOS transcripts; [3]): −0.662 | cyt c (cytochrome c; [3]): −0.243 | GE-HTS (OXPHOS gene expression; [3]): −0.727
